According to the supplement of paper PMC10307832:

Key:
Experiment in all cases: relative viability (nuclei count vs DMSO), 5 days (fraction); higher = more cells survive
KN-93 + Navitoclax = compound: CN(C/C=C/C1=CC=C(C=C1)Cl)CC2=CC=CC=C2N(CCO)S(=O)(=O)C3=CC=C(C=C3)OC [KN-93] + CC1(C)CCC(c2ccc(Cl)cc2)=C(CN2CCN(c3ccc(C(=O)NS(=O)(=O)c4ccc(N[C@H](CCN5CCOCC5)CSc5ccccc5)c(S(=O)(=O)C(F)(F)F)c4)cc3)CC2)C1 [Navitoclax] (partner 0.5 µM)
Method in brief: (§1)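 Lung cancer cell lines, seeded in 1536-well plates, were treated the following day by pin tool with a single drug or with five library-drug doses (not always all listed) in √10 steps on top of a fixed anchor-drug dose. Cells were fixed and nuclei stained in one step after 5 days, and nuclei were counted. Relative viability is the nuclei count for treated wells divided by that for vehicle wells, reported as medians of duplicate plates.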

KN-93 + Dasatinib = compound: CN(C/C=C/C1=CC=C(C=C1)Cl)CC2=CC=CC=C2N(CCO)S(=O)(=O)C3=CC=C(C=C3)OC [KN-93] + Cc1nc(Nc2ncc(C(=O)Nc3c(C)cccc3Cl)s2)cc(N2CCN(CCO)CC2)n1 [Dasatinib] (partner 0.075 µM)
Method in brief: as §1

KN-93 + Foretinib = compound: CN(C/C=C/C1=CC=C(C=C1)Cl)CC2=CC=CC=C2N(CCO)S(=O)(=O)C3=CC=C(C=C3)OC [KN-93] + COc1cc2c(Oc3ccc(NC(=O)C4(C(=O)Nc5ccc(F)cc5)CC4)cc3F)ccnc2cc1OCCCN1CCOCC1 [Foretinib] (partner 0.25 µM)
Method in brief: as §1

KN-93 + Lapatinib = compound: CN(C/C=C/C1=CC=C(C=C1)Cl)CC2=CC=CC=C2N(CCO)S(=O)(=O)C3=CC=C(C=C3)OC [KN-93] + CS(=O)(=O)CCNCc1ccc(-c2ccc3ncnc(Nc4ccc(OCc5cccc(F)c5)c(Cl)c4)c3c2)o1 [Lapatinib] (partner 2 µM)
Method in brief: as §1

KN-93 + Trametinib = compound: CN(C/C=C/C1=CC=C(C=C1)Cl)CC2=CC=CC=C2N(CCO)S(=O)(=O)C3=CC=C(C=C3)OC [KN-93] + CC(=O)Nc1cccc(-n2c(=O)n(C3CC3)c(=O)c3c(Nc4ccc(I)cc4F)n(C)c(=O)c(C)c32)c1 [Trametinib] (partner 0.02 µM)
Method in brief: as §1

Row | Cell Line | relative viability (KN-93 + Navitoclax; first compound 0.08 µM) | relative viability (KN-93 + Navitoclax; first compound 0.253 µM) | relative viability (KN-93 + Navitoclax; first compound 2.53 µM) | relative viability (KN-93 + Navitoclax; first compound 8 µM) | relative viability (KN-93 + Dasatinib; first compound 0.08 µM) | relative viability (KN-93 + Dasatinib; first compound 0.253 µM) | relative viability (KN-93 + Dasatinib; first compound 2.53 µM) | relative viability (KN-93 + Dasatinib; first compound 8 µM) | relative viability (KN-93 + Foretinib; first compound 0.08 µM) | relative viability (KN-93 + Foretinib; first compound 0.253 µM) | relative viability (KN-93 + Foretinib; first compound 2.53 µM) | relative viability (KN-93 + Foretinib; first compound 8 µM) | relative viability (KN-93 + Lapatinib; first compound 0.08 µM) | relative viability (KN-93 + Lapatinib; first compound 0.253 µM) | relative viability (KN-93 + Lapatinib; first compound 2.53 µM) | relative viability (KN-93 + Lapatinib; first compound 8 µM) | relative viability (KN-93 + Trametinib; first compound 0.08 µM) | relative viability (KN-93 + Trametinib; first compound 0.253 µM) | relative viability (KN-93 + Trametinib; first compound 2.53 µM) | relative viability (KN-93 + Trametinib; first compound 8 µM)
1 | NCI-H1734 | 0.649 | 0.964 | 0.816 | 0.622 | 0.478 | 0.544 | 0.577 | 0.358 | 0.72 | 0.847 | 0.734 | 0.585 | 1.15 | 1.1 | 1.6 | 0.88 | 0.624 | 0.775 | 0.653 | 0.405
2 | NCI-H1755 | 0.844 | 1.03 | 1.07 | 0.815 | 0.392 | 0.407 | 0.384 | 0.255 | 0.993 | 0.924 | 0.921 | 0.794 | 1.02 | 1.26 | 1.04 | 0.561 | 0.717 | 0.827 | 0.76 | 0.699
3 | NCI-H1793 | – | 0.398 | 0.385 | 0.244 | 0.406 | 0.374 | 0.407 | 0.169 | 0.729 | 0.799 | 0.642 | 0.287 | – | 0.804 | 0.992 | 0.556 | 0.44 | 0.42 | 0.472 | 0.339
4 | NCI-H1915 | 0.736 | 0.813 | 0.823 | 0.742 | 0.354 | 0.343 | 0.305 | 0.225 | 0.952 | 1.23 | 1.25 | 0.912 | 0.963 | 1.25 | 1.01 | 0.908 | 0.304 | 0.339 | 0.281 | 0.247
5 | NCI-H1944 | 1.09 | 1.01 | 1.04 | 0.896 | 0.235 | 0.22 | 0.213 | 0.154 | 0.831 | 0.835 | 0.709 | 0.557 | 0.84 | 0.793 | 0.96 | 0.771 | 0.419 | 0.385 | 0.432 | 0.328
6 | NCI-H1975 | 0.797 | 1.36 | 1.26 | 0.756 | 0.339 | 0.336 | 0.351 | 0.224 | 0.848 | 1.11 | 0.972 | 0.475 | 0.656 | 1.05 | 0.976 | 0.579 | 0.29 | 0.291 | 0.307 | 0.179
7 | NCI-H1993 | 0.939 | 0.71 | 0.861 | 0.632 | 0.518 | 0.547 | 0.55 | 0.47 | 0.774 | 0.78 | 0.808 | 0.672 | 0.693 | 0.772 | 0.862 | 0.758 | 0.547 | 0.542 | 0.498 | 0.501
8 | NCI-H2009 | 1.16 | 1.21 | 1.23 | 0.869 | 0.326 | 0.29 | 0.236 | 0.159 | 1.2 | 1.37 | 1.29 | 0.914 | 0.899 | 0.891 | 0.814 | 0.418 | 0.319 | 0.283 | 0.271 | 0.188
9 | NCI-H2023 | 1 | 1.22 | 1.05 | 0.789 | 0.494 | 0.472 | 0.647 | 0.244 | 0.935 | – | 0.981 | 0.627 | 0.804 | 0.858 | 0.932 | 0.239 | 0.55 | 0.459 | 0.628 | 0.434
10 | NCI-H2085 | 1.04 | 1.21 | 1.23 | 0.867 | 0.237 | 0.254 | 0.231 | 0.268 | 1 | 0.994 | 1.05 | 0.664 | 0.816 | 0.695 | 0.803 | 0.541 | 0.508 | 0.506 | 0.575 | 0.459
11 | NCI-H2087 | 0.931 | 0.948 | 0.982 | 0.527 | 0.793 | 1.38 | 0.882 | 0.622 | 0.983 | 1.31 | 1.21 | 0.697 | 1.06 | 1.22 | 1.02 | 0.286 | 0.249 | 0.15 | 0.19 | 0.128
12 | NCI-H2126 | 0.814 | 0.785 | 0.929 | 0.809 | 0.565 | 0.468 | 0.578 | 0.364 | 1.14 | 0.899 | 1.23 | 1.11 | 0.806 | 0.659 | 0.804 | 0.702 | 0.468 | 0.453 | 0.593 | 0.466
13 | NCI-H2170 | 0.537 | 0.606 | 0.542 | 0.563 | 0.501 | 0.55 | 0.718 | 0.266 | 0.973 | 1.23 | 0.903 | 0.892 | 0.271 | 0.257 | 0.274 | 0.249 | 0.796 | 1.16 | 1.02 | 0.834
14 | NCI-H2228 | 1.31 | 0.788 | 0.914 | 0.674 | 0.597 | 0.541 | 0.631 | 0.326 | 0.872 | 0.891 | 0.862 | 0.506 | 1.15 | 1.17 | 1.04 | 0.728 | 0.413 | 0.539 | 0.573 | 0.153
15 | NCI-H2347 | 0.696 | 0.843 | 0.794 | 0.543 | 0.322 | 0.273 | 0.288 | 0.245 | 1.12 | 0.656 | 1.25 | 0.593 | 0.932 | 0.921 | 1.17 | 0.595 | 0.28 | 0.316 | 0.282 | 0.26
16 | NCI-H2405 | 0.94 | 0.833 | 0.767 | 0.592 | 0.222 | 0.238 | 0.491 | 0.204 | 1.05 | 0.995 | 1.01 | 0.75 | 1.17 | 1.09 | 1.06 | 0.659 | 0.603 | 0.598 | 0.665 | 0.491
17 | NCI-H3122 | 1.11 | 1.1 | 1.1 | 0.846 | 0.716 | 0.824 | 1.12 | 0.661 | 1.05 | 1.13 | 1.11 | 0.912 | 1.09 | 1.01 | 1.12 | 0.978 | 0.2 | 0.21 | 0.264 | 0.194
18 | PC-3 [JPC-3] | 0.75 | 0.824 | 0.913 | 0.64 | 0.941 | 1.11 | 1.03 | 0.673 | 0.98 | 1.14 | 1 | 0.784 | 0.462 | 0.382 | 0.439 | 0.428 | 0.703 | 0.533 | 0.674 | 0.608
19 | PC-14 | 0.851 | 1 | 1.21 | 0.977 | 0.335 | 0.18 | 0.198 | 0.0533 | 0.797 | 0.988 | 1.12 | 1.01 | 0.305 | 0.227 | 0.318 | 0.307 | 0.553 | 0.802 | 0.696 | 0.524
20 | RERF-LC-KJ | 0.863 | 0.954 | 0.651 | 0.673 | 0.664 | 0.788 | 0.672 | 0.277 | 0.791 | 0.778 | 1.05 | 0.833 | 0.803 | 0.81 | 1.01 | 0.776 | 0.924 | 0.869 | 0.83 | 0.624
21 | SK-LU-1 | 0.748 | 0.849 | 1.3 | 0.538 | 0.192 | 0.179 | 0.188 | 0.17 | 0.768 | 1.05 | 0.938 | 0.48 | 0.644 | 1.15 | 0.972 | 0.56 | 0.46 | 0.594 | 0.51 | 0.317
22 | SK-MES-1 | 1.14 | 1.18 | 1.56 | 1.21 | 0.42 | 0.318 | 0.367 | 0.261 | 0.857 | 0.656 | 0.937 | 0.999 | 0.464 | 0.425 | 0.514 | 0.425 | 0.561 | 0.493 | 0.514 | 0.407
23 | SW 1573 | 0.97 | 1.12 | 1.13 | 0.598 | 0.551 | 0.492 | 0.474 | 0.236 | 0.863 | 0.91 | 0.933 | 1 | 1.31 | 1.11 | 1.14 | 0.919 | 0.518 | 0.565 | 0.627 | 0.149
24 | UMC-11 | – | 0.345 | 0.312 | 0.22 | 0.407 | 0.502 | 0.785 | 0.38 | 0.97 | 1.28 | 1.23 | 0.452 | 0.839 | 1.12 | 1.32 | 0.626 | 0.607 | 0.761 | 0.858 | 0.223
